One assay addresses T1, Cathepsin K (Homo sapiens, UniProt P43235).
T1 sequence (P43235 whole entry): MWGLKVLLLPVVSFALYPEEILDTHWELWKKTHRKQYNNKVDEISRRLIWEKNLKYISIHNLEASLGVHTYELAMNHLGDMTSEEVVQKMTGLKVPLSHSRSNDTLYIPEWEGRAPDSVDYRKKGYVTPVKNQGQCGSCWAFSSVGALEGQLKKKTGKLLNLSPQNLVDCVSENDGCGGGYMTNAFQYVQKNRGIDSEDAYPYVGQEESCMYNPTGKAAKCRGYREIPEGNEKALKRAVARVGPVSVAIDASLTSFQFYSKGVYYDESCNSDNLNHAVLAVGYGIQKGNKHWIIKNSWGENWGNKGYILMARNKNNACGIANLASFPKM
As to the kind of experiment: Inhibition of 10 uM Cbz-Phe-Arg-AMC binding to human cathepsin K by fluorescence assay.

The target of assay [1] is T2, Cathepsin K (Homo sapiens) (UniProt P43235).
T2 sequence (whole entry): T1 sequence (P43235 whole entry)
As to the kind of experiment: Percentage inhibition of 10 uM Cbz-Phe-Arg-AMC binding to human cathepsin K at 12.6 uM by fluorescence assay.

In assay [2] the target is Cathepsin (L and K) (Homo sapiens) (UniProt P43235+P07711). As to the kind of experiment: Ratio of inhibitory potency against cathepsins L and K using 5 uM Cbz-Phe-Arg-AMC in fluorescence assay. It is filed as protein assay.
The species named for assay [3] is Homo sapiens. As to the kind of experiment: Ratio of inhibitory potency against cathepsins K and B using 10 uM Cbz-Phe-Arg-AMC in fluorescence assay.
The species named for assay [4] is Homo sapiens. As to the kind of experiment: Ratio of inhibitory potency against cathepsins K and S using 10 uM Cbz-Phe-Arg-AM in fluorescence assay.
The species entered for assay [5] is Homo sapiens. As to the kind of experiment: Ratio of inhibitory potency against cathepsins K and V using 2 uM Cbz-Phe-Arg-AMC in fluorescence assay.

This passage reports IC50, inhibition and Ratio results from ChEMBL document CHEMBL1139588, “Ketoheterocycle-based inhibitors of cathepsin K: a novel entry into the synthesis of peptidic ketoheterocycles” (Bioorg Med Chem Lett, 2005).

Cathepsin (L and K) (Homo sapiens), sequence (P07711 whole entry, looked up, one chain of several): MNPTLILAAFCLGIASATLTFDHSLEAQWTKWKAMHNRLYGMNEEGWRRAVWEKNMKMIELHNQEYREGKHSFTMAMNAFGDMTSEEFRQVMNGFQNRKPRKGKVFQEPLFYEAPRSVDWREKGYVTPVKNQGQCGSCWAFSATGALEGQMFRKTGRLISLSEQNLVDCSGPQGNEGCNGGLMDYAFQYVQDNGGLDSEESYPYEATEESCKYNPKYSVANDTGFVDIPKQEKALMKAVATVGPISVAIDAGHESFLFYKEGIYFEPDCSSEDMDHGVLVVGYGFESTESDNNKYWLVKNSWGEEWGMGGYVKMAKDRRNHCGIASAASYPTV

In the case of `CCCC[C@H](NC(=O)OC(C(C)C)C(C)C)C(=O)c1cccs1`, on Cathepsin K, the half-maximal inhibitory concentration (IC50) came out at 1.9 µM. In assay [1], `CCOC(=O)c1csc(C(=O)CNC(=O)O[C@@H](C)CC2CCCCC2)n1` registered an inhibition of 0%.

`CCOC(=O)c1csc(C(=O)CNC(=O)[C@H](CC(C)C)NC(=O)OCc2ccccc2)n1` yielded an inhibition in assay [1] of 20%. At Cathepsin K, `CCCC[C@H](NC(=O)O[C@@H](C)CC1CCCCC1)C(=O)c1nc(-c2ccccc2)cs1` registered an IC50 of 7.1 µM.

As to `CCCC[C@H](NC(=O)O[C@@H](C)CC1CCCCC1)C(=O)c1nc(C)c(C(=O)OCC)s1`, in assay [1], the inhibition amounted to 10%. Compound `CCCC[C@H](NC(=O)O[C@@H](C)CC1CCCCC1)C(=O)c1noc(C)n1` yielded an IC50 on Cathepsin K of 8.1 µM. As for `CCCC[C@H](NC(=O)OC(Cc1ccccc1)CC(C)C)C(=O)c1nc(C(=O)OCC)cs1` (stereo partly specified), the inhibition in assay [1] came to 31%. The compound `CCCC[C@H](NC(=O)OC(Cc1ccccc1)C(C)C)C(=O)c1nc(C(=O)OCC)cs1` (stereo partly specified) yielded an inhibition in assay [1] of 28%. For `CCCOc1ccccc1C(=O)NCC(=O)c1nc(C(=O)OCC)cs1`, the half-inhibitory concentration (IC50) on Cathepsin K was greater than 13 µM.

The compound `CCCC[C@H](NC(=O)O[C@@H](C)CC1CCCCC1)C(=O)c1nc(C(=O)OCC)cs1` yielded an IC50 at Cathepsin K of 0.23 µM. The Ratio (in assay [2]; in the assay filed under Homo sapiens [3]; in the assay listed under Homo sapiens [4]; in the assay listed under Homo sapiens [5]) was greater than 40 in each case. As to `CCCC[C@H](NC(=O)OC(CC)Cc1ccccc1)C(=O)c1nc(C(=O)OCC)cs1` (stereo partly specified), at Cathepsin K, the IC50 is greater than 13 µM. `CCCC[C@H](NC(=O)O[C@@H](C)CC1CCCCC1)C(=O)c1nnc(-c2ccccc2)o1` returned a 50% inhibitory concentration (IC50) on Cathepsin K of 4 µM.

On to `CCOC(=O)c1csc(C(=O)CNC(=O)OC(CC)Cc2ccccc2)n1` (stereo unspecified), for which, in assay [1], the inhibition was found to be 0%. For `CCCC[C@H](NC(=O)O[C@@H](C)CC1CCCCC1)C(=O)c1nc(C(F)(F)F)cs1`, at Cathepsin K, the IC50 came to 13 µM.

`CCCC[C@H](NC(=O)[C@H](CC(C)C)NC(=O)OCc1ccccc1)C(=O)c1nc(C(=O)OCC)cs1` gave a concentration for half-maximal inhibition (IC50) at Cathepsin K of 13 µM. Turning to `CCCC[C@H](NC(=O)O[C@@H](C)CC1CCCCC1)C(=O)c1nccs1`, the IC50 on Cathepsin K worked out at 3.1 µM. Take `CCCC[C@H](NC(=O)OC(C(C)C)C(C)C)C(=O)c1ccccc1`: in assay [1], the inhibition was determined as 2%.

By IC50 is commonly meant the concentration that inhibits the measured activity by half. Low values mean inhibition by little substance, high ones a need for much substance. The inhibition is the drop in the measured response relative to a control, in per cent. Low values mean a weak effect, high ones a strong effect.
